Assay results from paper PMC7044277 (Nature Communications, 2020).
Where “and” joins values, the source holds several entries; their conditions need not be identical. Identical values can stand only once.

Legend:
DRD3 = DRD3 (Homo sapiens, UniProt P35462); assay: β-arrestin2 recruitment (Tango); type: cell-based; details: for response, concentration-response data point (replicates): Fig_S10b, drug alone
DRD4 (D4.4 variant) = molecular target: T1, DRD4 (D4.4 variant) (Homo sapiens, UniProt P21917); assay: Gαi/o-mediated cAMP inhibition (GloSensor); type: cell-based; details: DRD4; agonist, cAMP inhibition; read-out: EC50 ± SEM
T1 sequence (P21917 1-419): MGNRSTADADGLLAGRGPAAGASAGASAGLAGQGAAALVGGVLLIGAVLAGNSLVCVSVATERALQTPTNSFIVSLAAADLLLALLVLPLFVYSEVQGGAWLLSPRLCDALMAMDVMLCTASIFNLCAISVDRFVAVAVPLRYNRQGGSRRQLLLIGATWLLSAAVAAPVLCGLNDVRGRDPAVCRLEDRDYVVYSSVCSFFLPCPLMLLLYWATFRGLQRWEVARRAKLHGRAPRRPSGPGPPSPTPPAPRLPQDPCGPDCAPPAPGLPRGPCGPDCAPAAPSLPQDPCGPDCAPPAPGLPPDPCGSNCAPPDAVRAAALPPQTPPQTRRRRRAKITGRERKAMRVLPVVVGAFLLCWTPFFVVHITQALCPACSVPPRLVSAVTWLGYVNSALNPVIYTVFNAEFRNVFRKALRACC

DRD3 wild-type = DRD3 wild-type (Homo sapiens, UniProt P35462); assay: Radioligand competition binding, [3H]-N-methylspiperone; details: DRD3; [3H]-methylspiperone (0.8-1.0 nM); read-out: Ki
Sequence of DRD3 wild-type (P35462 whole entry): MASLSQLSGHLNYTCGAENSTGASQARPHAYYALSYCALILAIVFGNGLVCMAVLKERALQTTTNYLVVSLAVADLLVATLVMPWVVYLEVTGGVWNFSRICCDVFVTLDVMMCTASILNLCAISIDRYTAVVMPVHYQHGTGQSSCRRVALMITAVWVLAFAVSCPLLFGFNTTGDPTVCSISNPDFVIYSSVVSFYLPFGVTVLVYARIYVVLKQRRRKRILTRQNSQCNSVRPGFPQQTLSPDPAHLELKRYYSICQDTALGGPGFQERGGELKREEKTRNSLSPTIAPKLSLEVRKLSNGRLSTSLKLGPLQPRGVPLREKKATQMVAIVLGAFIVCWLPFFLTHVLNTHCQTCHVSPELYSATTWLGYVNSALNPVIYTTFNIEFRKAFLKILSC

[1] = tested on: serotonin receptor (subtype not given; reference agonist serotonin); assay: β-arrestin2 recruitment (Tango), agonist activity, source data Fig_S10l; type: cell-based, human; details: drug alone
DRD3 F1063.28A = DRD3 F1063.28A (Homo sapiens, UniProt P35462, F106A); assay: biochemical; type: binding
Sequence of DRD3 F1063.28A (P35462 whole entry F106A): as the sequence (P35462 whole entry) above, with F106A counted along it

[2] = molecular target: DRD2 (D2 long receptor) wild-type (Homo sapiens, UniProt P14416); assay: Radioligand competition binding, [3H]-N-methylspiperone, HEK293T membranes; details: DRD2; [3H]-methylspiperone (0.8-1.0 nM); read-out: Ki
Sequence of DRD2 (D2 long receptor) wild-type (P14416 whole entry): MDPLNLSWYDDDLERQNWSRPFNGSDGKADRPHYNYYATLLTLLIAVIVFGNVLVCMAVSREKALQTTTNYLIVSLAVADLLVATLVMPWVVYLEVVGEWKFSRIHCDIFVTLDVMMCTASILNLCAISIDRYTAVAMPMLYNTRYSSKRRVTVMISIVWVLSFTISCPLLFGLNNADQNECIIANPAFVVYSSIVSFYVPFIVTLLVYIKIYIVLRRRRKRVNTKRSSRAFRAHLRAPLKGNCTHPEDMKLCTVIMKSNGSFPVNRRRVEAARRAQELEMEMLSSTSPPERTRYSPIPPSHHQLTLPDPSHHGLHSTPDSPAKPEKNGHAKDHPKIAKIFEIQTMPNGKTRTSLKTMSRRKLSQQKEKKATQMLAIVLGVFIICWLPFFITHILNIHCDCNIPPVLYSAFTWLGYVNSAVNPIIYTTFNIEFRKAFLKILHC

DRD2 F1103.28A = DRD2 F1103.28A (Homo sapiens, UniProt P14416, F110A); assay: Gαi/o-mediated cAMP inhibition (GloSensor), mutant; type: cell-based; set-up: expressed in transfected cells; host or cells: HEK293T (ATCC CRL-11268)
Sequence of DRD2 F1103.28A (P14416 whole entry F110A): as the sequence (P14416 whole entry) above, with F110A counted along it

Sequence of DRD3 (P35462 whole entry): as the sequence (P35462 whole entry) above

With `CCOc1cccc2cc([C@H](C)NCC3(O)CCCCC3)oc12` [O4SE6] the “response, concentration-response data point (replicates)” value (from here on “response … (replicates)”) (DRD3; Log[Drug] -11) was 0.5878 and 2.511 and 1.194 and 2.15 and 1.1907 and 4.631 and -3.875 and 11.6724 and 8.605, the “response … (replicates)” value (DRD3; Log[Drug] -11.52) was -0.276 and 0.7993 and -0.05881 and 1.198 and 0.07895 and 5.103 and 9.785 and 5.488 and 1.269 and the “response … (replicates)” value (DRD3; Log[Drug] -12) was 1.3136 and 1.529 and -0.0652 and 0.03793 and 0.02727 and 3.808 and -3.9762 and 0.1686 and 1.294. The “β-arrestin2 recruitment response at DRD3 (source data, replicate values)” value (from here on “β-arrestin2 recruitment response at DRD3”) (DRD3; Log[Drug] -6) was 12.3452, the “β-arrestin2 recruitment response at DRD3” value (DRD3; Log[Drug] -6.52) was 8.082 and 5.965 and 11.0149 and 19.9759 and 10.9551 and 9.221 and 9.014 and 7.197 and 16.9834 and the “β-arrestin2 recruitment response at DRD3” value (DRD3; Log[Drug] -7) was 8.647 and 6.889 and 5.419 and 8.207 and 5.755 and 6.315 and 4.579 and 5.095 and 7.56. The “β-arrestin2 recruitment response at DRD3” value (DRD3; Log[Drug] -7.52) was 4.34 and 0.6022 and 1.762 and 2.508 and 1.167 and 1.071 and 1.816 and 2.855 and 3.052, the “β-arrestin2 recruitment response at DRD3” value (DRD3; Log[Drug] -8) was 0.7316 and 0.3304 and 1.058 and 0.6729 and 0.7789 and 1.51 and 1.953 and 1.946 and 0.2868 and the “β-arrestin2 recruitment response at DRD3” value (DRD3; Log[Drug] -8.52) was 1.063 and 0.9542 and 0.434 and 0.6781 and 0.1637 and 0.2619 and 0.09244 and 0.8182 and 0.08985. For the same compound, the “β-arrestin2 recruitment response at DRD3” value (DRD3; Log[Drug] -9) was -0.1872 and 1.166 and 0.6488 and 0.05773 and 0.4739 and 2.133 and -0.01123 and 0.2998 and -0.1097, the “β-arrestin2 recruitment response at DRD3” value (DRD3; Log[Drug] -9.52) was 0.6514 and 0.02761 and -0.07333 and 1.513 and -0.1516 and 0.7866 and 1.233 and 1.648 and 0.09503 and the “β-arrestin2 recruitment response at DRD3” value (DRD3; Log[Drug] -10) was 1.257 and -0.3865 and -0.07075 and 0.2387 and 0.7918 and -0.1413 and 0.6108 and 0.3983 and -0.4207. For the same compound, the “β-arrestin2 recruitment response at DRD3” value (DRD3; Log[Drug] -10.52) was 3.755 and 0.333 and -0.07333 and 2.441 and 0.1379 and -0.03791 and 0.1961 and 1.7564 and 0.1754, the “β-arrestin2 recruitment response at DRD3” value (DRD3; Log[Drug] -11) was 0.522 and -0.07333 and -0.1743 and 0.2309 and 5.954 and 1.288 and -0.4182 and -0.01901 and 1.549 and the “β-arrestin2 recruitment response at DRD3” value (DRD3; Log[Drug] -11.52) was 1.588 and -0.07592 and 0.1337 and 0.3757 and 0.0448 and -0.03791 and 0.4061 and 1.448 and -0.2186. The EC50 (DRD4 (D4.4 variant)) was over 10 µM, the Ki (DRD3 wild-type) was 0.81 µM and the “response, Fig_S10l, replicate values” ([1]; Log[Drug] -6.52) was -2.091. The “response, Fig_S10l, replicate values” ([1]; Log[Drug] -7) was -4.051 and -1.4228 and 2.693 and -6.163 and -1.5474 and -1.737 and -7.607 and -30.8777 and -6.976, the “response, Fig_S10l, replicate values” ([1]; Log[Drug] -7.52) was -6.555 and -13.4609 and -0.98 and 4.322 and -3.875 and -2.693 and -7.055 and 7.925 and -34.7877 and the “response, Fig_S10l, replicate values” ([1]; Log[Drug] -8) was -3.792 and 35.132 and 2.507 and -11.1986 and -6.626 and 6.545 and -5.91 and -30.1494 and -3.473. The “response, Fig_S10l, replicate values” ([1]; Log[Drug] -8.52) was 1.522 and -11.8615 and -2.437 and 12.7169 and -12.0506 and -8.665 and 20.957 and -2.778 and -10.1926, the “response, Fig_S10l, replicate values” ([1]; Log[Drug] -9) was -4.295 and 4.13 and 0.2396 and -2.794 and 1.184 and 0.6235 and -1.336 and -7.8842 and -10.8253 and the “response, Fig_S10l, replicate values” ([1]; Log[Drug] -9.52) was 25.6854 and -2.744 and -6.32 and -4.5985 and -1.891 and 4.517 and 39.1804 and -4.421 and -3.844. For the same compound, the “response, Fig_S10l, replicate values” ([1]; Log[Drug] -10) was -8.462 and 9.478 and -1.609 and 0.3049 and 15.9901 and -6.166 and 19.6932 and 12.6773 and 5.951, the “response, Fig_S10l, replicate values” ([1]; Log[Drug] -10.52) was 6.737 and -12.3624 and -4.665 and -4.851 and -5.052 and -4.841 and 9.484 and 11.2587 and 10.4562 and the “response, Fig_S10l, replicate values” ([1]; Log[Drug] -11) was -35.1417 and -18.9513 and -15.3749 and 4.5184 and -0.5498 and 5.57 and -9.125 and -8.22 and 4.834. For the same compound, the “response, Fig_S10l, replicate values” ([1]; Log[Drug] -11.52) was -5.783 and 6.132 and 4.745 and -13.0691 and -5.46 and 4.358 and -4.571 and 10.1317 and -13.0711, the “response, Fig_S10l, replicate values” ([1]; Log[Drug] -12) was 6.173 and -15.2273 and 9.6789 and 4.873 and 7.863 and 1.749 and -9.697 and 0.6459 and 4.404 and the Ki (DRD3 F1063.28A) was 1.91 µM. It also gave a Ki [2] of 4.57 µM and an EC50 (DRD2 F1103.28A) of over 10 µM.
